Test results reported in patent US20230321089A1, “COMBINATION OF CABOTEGRAVIR AND LEVONORGESTREL” (ViiV Healthcare Company, priority 2020, published 2023).

Legend:
HIV-1 strains = conditions: broad range of HIV-1 strains; cited from earlier work
[1] = set-up: species or system male Sprague Dawley rats; conditions: rat, in vivo
Method: To prepare the combination product, LNG and LNG-b suspensions were added to Cabotegravir suspensions at 500 mg/mL to achieve a final Cabotegravir concentration of approximately 200 mg/mL and a final LNG and LNGb concentration of […], using a solution of 2.0% Mannitol in water to adjust the final concentrations to target. Concentrations of P338 and PEG3350 were at 4.5%. The resulting suspensions were flushed with nitrogen, stoppered (FM457 stopper), and sealed. The suspensions were terminally sterilized by gamma irradiation at a minimum dose of 25 kGy.
The pharmacokinetics of co-suspensions of Cabotegravir and LNG/LNG-b, prepared as described above, were evaluated in male Sprague Dawley rats. The formulations that were tested included: • i. 200 mg/mL Cabotegravir and 40 mg/mL LNG—0.2 microns • ii. 200 mg/mL Cabotegravir 40 mg/mL LNG—1 micron • iii. 200 mg/mL Cabotegravir and 40 mg/mL LNGb—0.2 microns • iv. 200 mg/mL Cabotegravir 40 mg/mL LNGb—1 micron
Rats were administered co-suspensions either intramuscularly or subcutaneously at target doses of 10 mg/kg Cabotegravir and […] LNG or LNGb. […] FIG. 2 is a comparison of Levonorgestrel blood concentration pharmacokinetic profiles after intramuscular vs. subcutaneous administration. The average particle size of LNG for these formulations was 0.2 microns in diameter. […] Furthermore, FIG. 3 is a comparison of LNG and LNG-b co-formulated with Cab.

In the case of `C[C@H]1CO[C@@H]2Cn3cc(C(=O)NCc4ccc(F)cc4F)c(=O)c(O)c3C(=O)N12` [Cabotegravir, N-((2,4-Difluorophenyl)methyl)-6-hydroxy-3-methyl-5,7-dioxo-2,3,5,7,11,11a hexahydro(1,3)oxazolo(3,2-a)pyrido(1,2-d)pyrazine-8-carboxamide], the potency (HIV-1 strains) is given as “subnanomolar”.

With `C#C[C@]1(O)CC[C@H]2[C@@H]3CCC4=CC(=O)CC[C@@H]4[C@H]3CC[C@@]21CC` [LNG, Levonorgestrel] the “Levonorgestrel blood concentration pharmacokinetic profile: intramuscular vs. subcutaneous administration” value [1] was “does not appear to be a significant impact”.

In the case of `C#C[C@]1(OC(=O)CCC)CC[C@H]2[C@@H]3CCC4=CC(=O)CC[C@@H]4[C@H]3CC[C@@]21CC` [LNGb, Levonorgestrel-butanoate], the “Cmax compared with LNG” value ([1]; sc) is reported as “lower” and the “apparent half-life compared with LNG” value ([1]; sc) is reported as “slightly longer”.
